Assay [1] concerns VSMCs. Kind of assay: VSMC proliferation assay by BrdU incorporation. The class given is cell-based, human. The settings on record: for BrdU incorporation: control 0.86±0.03. The procedure: VSMCs were grown in 96-well plates or 8-well chamber slides and incubated with 10^−7 M of MPA (Sigma-Aldrich) or ETO (Organon) or P4 (Sigma-Aldrich) or vehicle±rCCL2 (R&D Systems)±STAT1 inhibitor, 5′-methyl-thioadenosine (MTA; EMD Millipore) (19) for 48 or 72 h. VSMCs were then analyzed for apoptosis by an ELISA based apoptosis kit (Roche) or cleaved-caspase 3 immunostaining. VSMC proliferation was measured by BrdU incorporation Kit (Cell Signaling). (See further details in SI Materials and Methods).
VSMCs were thawed and cultured in T-75 cell culture flasks in medium 231 (M231; Life Technologies) with smooth muscle growth supplement (5% FBS; 2 ng/mL human basic fibroblast growth factor, 0.5 ng/mL human epidermal growth factor, 5 ng/mL heparin, 0.2 μg/mL insulin and 5 μg/mL BSA; Life Technologies) with 100 U/mL penicillin, 100 μg/mL streptomycin, and 0.25 μg/mL fungizone. Confluent VSMCs were washed twice with 1×PBS to remove residual serum, and then passaged (5,000 cells per well) in 96-well plates and incubated in parallel in M231 with 1% charcoal striped FBS with 0.1% ethanol (vehicle, control), 10^−7 M MPA (Sigma-Aldrich), 10^−7 M ETO (Organon), or 10^−7 M P4 (Sigma-Aldrich)±rCCL2 (monocyte chemotactic protein-1; R&D Systems)±STAT1 inhibitor, 5′-methyl-thioadenosine (MTA; EMD Millipore) for 48 or 72 h.
BrdU (Cell Signaling) 1× in 100-μL M231 was added to each well during the final 24 h of incubation. At the end of 48- or 72-h incubation period, medium was removed and the wells washed twice with ice-cold PBS. VSMC proliferation was measured using BrdU cell proliferation Kit (Cell Signaling) at room temperature. Cells was incubated in 100 μL per well of the fixing/denaturing solution for 30 min, and then replaced by 100 μL per well BrdU detection antibody solution for 1 h. Following three rinses with wash buffer, plates were incubated in HRP-conjugated secondary antibody (100 μL per well) for 30 min. After three additional rinses with wash buffer, tetramethylbenzidine substrate solution (100 μL per well) was added for 20 min and the reaction stopped by adding 100 μL per well STOP solution. Absorbance was measured at 450 nm using Spectra Max190 microplate reader (Molecular Devices) to detect BrdU incorporation in each well.

The next assay relates to endometrial VSMCs. Put plainly: αSMA and PCNA double-immunostaining of endometrium of oophorectomized guinea pigs (OVX-GPs). Format: in vivo, guinea pig. To be noted: 21-d time-release pellets, mean±SEM. The text has this: After receiving written informed consent at New York University under Institutional Review Board approval, paraffin sections were derived from banked paired endometrial tissues obtained before and after Depo therapy by […] biopsy from each reproductive age woman with regular menstrual cycles during the secretory phase (n=6). Based on an established animal model for LAPC-induced AUB in humans (9), nulliparous adult female pigmented GPs (weighing 525-775 g) were used in experimental procedures conforming to National Health and Medical Research Council Guidelines of Australia and approved by the Animal Ethics Committee of The University of Western Australia. GPs (n=24) were subjected to bilateral OVX and given subcutaneous 21-d time-release pellets (Innovative Research of America) containing MPA (50 mg/d; n=6) or 17β-Estradiol (E2) (0.1 mg/d; n=6), both MPA and E2 (n=6), or no pellets (n=6). On day 20 of exposure to the pellets, GPs were killed with pentobarbital and uterine tissues fixed in 10% formalin and processed for paraffin embedding. In vitro experiments used aortic VSMCs from premenopausal women (n=2) (Life Technologies). Paraffin sections (5 μm) from paired pre- vs. post-Depo treated human or GP endometria were deparaffinized, boiled in citrate buffer (pH: 6.0) and then incubated in methanol containing 3% H2O2. Following 10% normal horse serum blocking (Vector Labs), slides were incubated overnight at 4° C. with mouse anti-PCNA monoclonal antibody (EMD Millipore). After several rinses in Tris-buffered saline containing 0.1% tween-20 (TBS-T; pH 7.6) slides were then incubated with biotinylated anti-mouse IgG (Vector Labs) for 30 min, then with a streptavidin-peroxidase complex (Elite ABC kit; Vector Labs) for 30 min and with diaminobenzidine (DAB; Vector Labs) for 3 min. […] Slides were counterstained by Hematoxylin and evaluated by histological scoring (HSCORE), as described previously (34). (See details for HSCORE evaluation for αSMA immunoreactivity and PCNA quantitation in SI Materials and Methods). Staining intensity for α-SMA was semiquantitatively evaluated by Q:1 HSCORE (1). […] An HSCORE value was determined for each specimen by using the formula HSCORE=ΣPi (i+1), where Pi is the percentage of stained cells in each intensity category (i.e., i=1, 2, or 3). Quantitation of PCNA immunostaining was determined by counting the number of PCNA^+ (brown) and PCNA^- cell nuclei (blue) in VSMCs (αSMA immunostained cells) and obtaining the ratio of numbers of PCNA^+ cell nuclei to total αSMA^+ cells. For each slide, three different fields were evaluated microscopically at 200× magnification. Slides were evaluated at different times by two investigators blinded to tissue source, and the average HSCORE or percentage of cells with PCNA^+ nuclei to total αSMA^+ cells used.

Assay [2] relates to VSMCs. Kind of assay: Transwell insert migration assay. Format: cell-based, human. To be noted: coincubation with 10 ng/mL rCCL2, 12 h. The procedure:
VSMCs (75,000 cells/200 μL) were suspended in M231 containing 1% charcoal striped FBS and either 0.1% ethanol (vehicle control) or the corresponding steroids and seeded onto insert wells (transwell filter with 12-μm pores; EMD Millipore). The inserts were then placed in 24-well plates containing 500 μL M231 with 1% charcoal striped FBS. After 12 h, cells remaining on the upper surface of the filter were removed with a cotton swab. Migrated cells were trypsinized, centrifuged, and resuspended in 200 μL of M231 medium. The cell suspensions were mixed with 200 μL 10% ethanol containing 0.4% Trypan blue dye and the live cell number was counted by Countess Automated Cell Counter (Invitrogen). See further details in SI Materials and Methods.
Cultured VSMCs were grown in T-75 cell culture flasks in M231 (Life Technologies) with smooth muscle growth supplement (Life Technologies) with 100 U/mL penicillin, 100 μg/mL streptomycin, 0.25 μg/mL fungizone. Confluent VSMCs were washed twice with 1×PBS to remove residual serum, and then trypsinized, resuspended (75,000 cells per 200 μL per well) in M231 with 1% charcoal striped FBS with 0.1% ethanol (vehicle, control), 10^−7 M MPA (Sigma-Aldrich), 10^−7 M ETO (Organon), or 10^−7 M P4 (Sigma-Aldrich)±rCCL2 (R&D Systems) and seeded on insert wells (transwell filter with 12-μm pores; EMD Millipore), which were then placed in 24-well plates containing 500 μL M231 with 1% charcoal striped FBS. After 12 h, cells remaining on the upper surface of the filter were removed with a cotton swab. Migrated cells attached to the lower surface of each insert or to the surface of lower wells were collected by trypsinization, followed by centrifugation and resuspension in 200 μL of M231 medium. The cell suspensions were mixed with 200 μL 10% ethanol containing 0.4% Trypan blue dye (selectively stains only dead cells blue, whereas live cells with intact cell membranes remain unstained) for 5 min. A mixture of 100 μL M231 and 100 μL 10% ethanol containing 0.4% Trypan blue dye was used as a negative control. To detect live cell numbers, 10 μL of final cell/Trypan blue dye suspension from each treatment condition was pipetted into Countess Cell Counting Chamber Slide and counted by using Countess Automated Cell Counter (Invitrogen). The counting procedure was performed in duplicate.

Three compounds from patent publication US20180078615A1, “USE OF CCL2 TO INHIBIT ABNORMAL UTERINE BLEEDING” (UNIVERSITY OF SOUTH FLORIDA, priority 2015, published 2018) can be followed below.

With 5′-methyl-thioadenosine [MTA], the “effect on rCCL2 reversal of progestin-inhibited BrdU incorporation” value with VSMCs [1] (100 μm MTA with 10 ng/mL rCCL2 and MPA or ETO) is listed as “abolished”.
For `C[C@]12CC[C@@H]3c4ccc(O)cc4CC[C@H]3[C@@H]1CC[C@@H]2O` [E2, 17β-Estradiol], in the assay on endometrial VSMCs (n=6, control 11.2%±2.3), the “PCNA+ endometrial VSMCs” value is recorded as 36.8%±2.7. Besides, in the assay on endometrial VSMCs (n=6, control 135.2±26.0), the “αSMA HSCORE” value amounted to 212.7±14.6.
For “rCCL2: recombinant chemokine (C-C motif) ligand 2 (monocyte chemotactic protein-1; R&D Systems)”, the “effect on inhibition of BrdU incorporation by ETO” value in the assay with VSMCs [1] (10 ng/mL rCCL2 added to 10^−7 M ETO) was “reversed”. Besides, in the assay with VSMCs [1] (10 ng/mL rCCL2 added to 10^−7 M MPA), the “effect on inhibition of BrdU incorporation by MPA” value is recorded as “reversed”. This compound registered a BrdU incorporation in the assay with VSMCs [1] (rCCL2 1 ng/mL) of 1.05±0.05. The BrdU incorporation in the assay with VSMCs [1] (rCCL2 10 ng/mL) is 1.21±0.05. In addition, in the assay on VSMCs [2], the “effect on inhibition of VSMC migration by ETO” value is reported as “did not reverse”, the “effect on inhibition of VSMC migration by MPA” value was “partially reversed” and the “effect on inhibition of VSMC migration by P4” value is “did not reverse”.
